Source: publication PMC8151276, “An Integrated Approach toward NanoBRET Tracers for Analysis of GPCR Ligand Engagement” (Molecules, 2021)

Biological target: T1, GRM7 (Homo sapiens, UniProt Q14831)
T1 construct: purchased Promega (in-house HiBiT-GPCR construct library, NanoBRET)
Assay: NanoBRET screen HiBiT-GRM7 in HEK293
Format: binding
Protocol: Each tracer candidate was screened across the entire library of HiBiT-GPCR constructs using NanoBRET as the detection modality. As depicted in Figure 4A, the specificity of interactions was evaluated through decrease in BRET due to competitive displacement of a bound tracer by excess parental compound. Each tracer was analyzed for binding to each HiBiT-GPCR fusion in the absence and in the presence of competing parental compound. Briefly, HEK293 cells were transfected with HiBiT-GPCR constructs diluted into promoterless DNA to reduce expression and maximize translocation to the cell surface. Each tracer candidate was then screened at concentrations of 1 μM and 0.1 μM across cells expressing these fusions. Cells were treated for 1.5 h with tracer either alone or in the presence of 20 μM competing parental compound (i.e., control). BRET was measured upon addition of purified LgBiT and subsequent complementation with HiBiT genetically fused to a GPCR. The specificity of interactions was assessed through a decrease in BRET signal due to competitive displacement of the bound tracer. To further gauge the robustness of these interactions, the fold response over the control (i.e., BRETtracer/BRETcontrol) was calculated. We chose a 1.5-fold response, which translates to ≥7-fold signal over noise as the minimal threshold required to score an interaction as positive.
HiBiT-GPCR DNA constructs were diluted in 10 mM Tris pH 8 to a final concentration of 0.01 μg/μL, arrayed in 96-well plates and stored at −20 °C. For transfection, HEK293 cells were suspended in Opti-MEM (without phenol red) supplemented with 2% fetal bovine serum (Seradigm) and 100 units/mL penicillin–streptomycin (Gibco) at a final concentration of 220,000 cells/mL and dispensed into white 96-well plates at 90 μL/well. Subsequent transfections and screens were carried using an Agilent Bravo Automated Liquid Handling Platform. First, the 96-well HiBiT DNA arrays were diluted 25-fold in Opti-MEM (without serum or phenol red) to a final concentration of 0.0004 μg/μL and 20 μL of the diluted DNAs were transferred into new 96-well plates. Next, promoterless carrier DNA (1 μg/μL) was diluted 25-fold (0.04 μg/μL) and then dispensed into the diluted arrays at 20 μL/well. Following brief mixing, Viafect transfection reagent (Promega) diluted 16-fold into Opti-MEM was dispensed into the plates at 40 μL/well. After mixing by pipetting, plates were incubated for 10 min on the pipetting station deck. The DNA-transfection reagent complexes were then added to plates containing cells. To facilitate the screen, 10 μL of DNA-transfection reagent complexes were added in duplicates to the top 4 and bottom 4 rows, resulting in two identical 48-well arrays per plate. Plates with transfected cells were incubated for 18–20 h at 37 °C/5% CO2. A screen of each tracer across the entire library using two different concentrations requires duplicate plates of transfected cells. Depending on the number of tracers being screened, transfections can be scaled up using the same ratios. The next day, for each tracer, four 20× screening solutions in tracer dilution buffer (Promega) were prepared: two duplicates at final concentration of 20 μM and two duplicates at a final concentration of 2 μM. […] The four resulting solutions were diluted 4-fold in Opti-MEM without serum or phenol red to generate 5× solutions (5 µM and 0.5 µM tracer +/− 100 μM competing compound). To screen the library, a BioTek MultiFlo FX liquid dispenser was used to dispense 22.5 µL of tracer solution to the top 4 rows and 22.5 µL tracer + competing compound solution to the 4 bottom rows. Plates were briefly mixed on an orbital shaker and incubated for 1.5 h at room temperature. […] Plates were briefly mixed on an orbital shaker and incubated for 15 min to allow complementation.

T1 sequence (Q14831 35-915): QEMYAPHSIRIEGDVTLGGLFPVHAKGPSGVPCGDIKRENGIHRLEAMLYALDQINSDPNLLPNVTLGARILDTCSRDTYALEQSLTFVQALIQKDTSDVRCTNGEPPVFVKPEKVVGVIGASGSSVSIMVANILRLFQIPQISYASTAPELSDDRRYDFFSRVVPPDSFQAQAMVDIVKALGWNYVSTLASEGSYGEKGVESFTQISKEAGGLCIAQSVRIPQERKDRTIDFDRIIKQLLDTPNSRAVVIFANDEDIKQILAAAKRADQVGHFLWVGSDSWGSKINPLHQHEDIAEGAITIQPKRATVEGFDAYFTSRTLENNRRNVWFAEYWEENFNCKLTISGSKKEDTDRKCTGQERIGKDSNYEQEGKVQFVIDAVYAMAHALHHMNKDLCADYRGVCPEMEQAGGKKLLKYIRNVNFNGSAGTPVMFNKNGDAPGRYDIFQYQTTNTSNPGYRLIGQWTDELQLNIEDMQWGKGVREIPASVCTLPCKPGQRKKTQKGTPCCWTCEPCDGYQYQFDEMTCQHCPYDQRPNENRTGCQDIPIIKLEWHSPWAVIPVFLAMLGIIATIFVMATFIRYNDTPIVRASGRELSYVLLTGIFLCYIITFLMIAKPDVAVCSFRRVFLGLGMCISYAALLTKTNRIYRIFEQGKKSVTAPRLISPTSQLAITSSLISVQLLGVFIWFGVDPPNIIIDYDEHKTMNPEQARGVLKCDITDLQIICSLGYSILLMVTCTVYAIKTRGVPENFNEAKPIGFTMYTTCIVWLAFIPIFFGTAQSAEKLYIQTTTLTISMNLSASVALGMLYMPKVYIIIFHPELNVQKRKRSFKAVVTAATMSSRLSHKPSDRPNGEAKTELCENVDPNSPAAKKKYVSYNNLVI

SMILES	NanoBRET Fold Response (GRM7, tracer 0.1μM)	NanoBRET Fold Response (GRM7, tracer 1μM)	further results
O=C(CCc1ccc2n1[B-](F)(F)[N+]1=C(c3ccc[nH]3)C=CC1=C2)NCc1ccc(C(=O)NCCOCCC(=O)N[C@@H]2CC[C@@]3(O)[C@H]4Cc5ccc(O)c6c5[C@@]3(CCN4CC3CC3)[C@H]2O6)cc1 [Naltrexone-3-NB590]	1.01	0.93	
CCCn1c(=O)c2[nH]c(-c3ccc(OCC(=O)NCCNC(=O)CCOCCNC(=O)c4ccc(CNC(=O)CCc5ccc6n5[B-](F)(F)[N+]5=C(c7ccc[nH]7)C=CC5=C6)cc4)cc3)nc2n(CCC)c1=O [XAC-3-NB590]	1.03	1.07	
CC(C)N(CC[C@H](c1ccccc1)c1cc(CCNC(=O)c2ccc(CNC(=O)CCc3ccc4n3[B-](F)(F)[N+]3=C(c5ccc[nH]5)C=CC3=C4)cc2)ccc1O)C(C)C [Tolterodine-BZ-NB590]	0.99	1.02	
COc1ccc2[nH]c(-c3ccc(CNC(=O)CCOCCOCCOCCOCCNC(=O)CCc4ccc5n4[B-](F)(F)[N+]4=C(c6ccc[nH]6)C=CC4=C5)cc3)c(CCNC(C)=O)c2n1 [AzomelatoninICO9-2-NB590]			NanoBRET Fold Response (0.1μM tracer): 1.03; NanoBRET Fold Response (1μM tracer): 1.08
CN1CCN(C2=Nc3cc(Cl)ccc3N(CC(=O)NCCOCCOCCOCCOCCNC(=O)CCc3ccc4n3[B-](F)(F)[N+]3=C(c5ccc[nH]5)C=CC3=C4)c3ccccc32)CC1 [Clozapine-c-2-NB590]			NanoBRET Fold Response (GRM7, 0.1μM tracer): 1.00; NanoBRET Fold Response (GRM7, 1μM tracer): 1.03
COc1ccccc1N1CCN(CCCCN2C(=O)c3ccc(CNC(=O)CCOCCNC(=O)c4ccc(CNC(=O)CCc5ccc6n5[B-](F)(F)[N+]5=C(c7ccc[nH]7)C=CC5=C6)cc4)cc3C2=O)CC1 [NAN-190-3-NB590]	1.01	0.95	
Cc1nc2n(c(=O)c1CCN1CCC(c3noc4cc(F)ccc34)CC1)CCCC2OC(=O)NCCOCCOCCOCCOCCNC(=O)CCc1ccc2n1[B-](F)(F)[N+]1=C(c3ccc[nH]3)C=CC1=C2 (stereo not shown) [Risperidone-2-NB590]	1.00	1.00	
O=C(CCOCCOCCOCCOCCNC(=O)CCc1ccc2n1[B-](F)(F)[N+]1=C(c3ccc[nH]3)C=CC1=C2)NCCCN1CCN(C2=Nc3ccccc3Oc3ccc(Cl)cc32)CC1 [Loxapine-a-2-NB590]	1.07	1.12	
COc1ccccc1N1CCN(CCCCN2C(=O)c3ccc(CNC(=O)CCOCCOCCOCCOCCNC(=O)CCc4ccc5n4[B-](F)(F)[N+]4=C(c6ccc[nH]6)C=CC4=C5)cc3C2=O)CC1 [NAN-190-2-NB590]	1.00		
CC(C)N(CC[C@H](c1ccccc1)c1cc(CCNC(=O)CCOCCOCCOCCOCCNC(=O)CCc2ccc3n2[B-](F)(F)[N+]2=C(c4ccc[nH]4)C=CC2=C3)ccc1O)C(C)C [Tolterodine-2-NB590]	1.18	0.89	
N#CN=C(NCCCOc1cccc(CN2CCCCC2)c1)NCCNC(=O)CCOCCOCCOCCOCCNC(=O)CCc1ccc2n1[B-](F)(F)[N+]1=C(c3ccc[nH]3)C=CC1=C2 [Aminopotentidine-2-NB590]	0.98	1.05	
CCOC(=O)c1cc(C#N)c(N2CCC(C(=O)NS(=O)(=O)Cc3ccccc3/C=C/C(=O)NCCNC(=O)CCc3ccc4n3[B-](F)(F)[N+]3=C(c5ccc[nH]5)C=CC3=C4)CC2)nc1C [AZD1283-1-NB590]			NanoBRET Fold Response (GRM7, 0.1μM): 0.98; NanoBRET Fold Response (GRM7, 1μM): 1.05
CN(C)CCC=C1c2ccccc2CCc2ccc(C(=O)NCCNC(=O)CCOCCOCCOCCOCCNC(=O)CCc3ccc4n3[B-](F)(F)[N+]3=C(c5ccc[nH]5)C=CC3=C4)cc21 [Amitriptyline-b-2-NB590]	1.09	1.00	
O=C(CCc1ccc2n1[B-](F)(F)[N+]1=C(c3ccc[nH]3)C=CC1=C2)NCCOCCOCCNC(=O)OCCOCCN1CCN(C2=Nc3ccccc3Sc3ccccc32)CC1 [Quetiapine-a-2-NB590]	1.03	1.05	
Cc1cc2c(s1)Nc1ccccc1N=C2N1CCN(CCCNC(=O)CCOCCOCCOCCOCCNC(=O)CCc2ccc3n2[B-](F)(F)[N+]2=C(c4ccc[nH]4)C=CC2=C3)CC1 [Olanzapine-a-2-NB590]	1.00	1.02	
CN1CCN(C2=Nc3cc(Cl)ccc3Nc3ccc(CNC(=O)CCOCCOCCOCCOCCNC(=O)CCc4ccc5n4[B-](F)(F)[N+]4=C(c6ccc[nH]6)C=CC4=C5)cc32)CC1 [Clozapine-b-2-NB590]			NanoBRET Fold Response (GRM7, 0.1μM tracer): 1.04; NanoBRET Fold Response (GRM7, 1μM tracer): 0.93
COc1ccc2c(n1)c(CCNC(C)=O)cn2CCNC(=O)CCc1ccc2n1[B-](F)(F)[N+]1=C(c3ccc[nH]3)C=CC1=C2 [Azamelatonin-1-NB590]			NanoBRET Fold Response (0.1μM tracer): 1.10; NanoBRET Fold Response (1μM tracer): 1.16
O=C(CCc1ccc2n1[B-](F)(F)[N+]1=C(c3ccc[nH]3)C=CC1=C2)NCc1ccc(C(=O)NCCOCCOCCNCC(O)COc2cccc3ccccc23)cc1 (stereo not shown) [Propranolol-3-NB590]			NanoBRET Fold Response (GRM7, 0.1μM): 1.00; NanoBRET Fold Response (GRM7, 1μM): 0.97
O=C(CCOCCOCCOCCOCCNC(=O)CCc1ccc2n1[B-](F)(F)[N+]1=C(c3ccc[nH]3)C=CC1=C2)NCCCN1CCN(C2=Nc3cc(Cl)ccc3Nc3ccccc32)CC1 [Clozapine-a-2-NB590]			NanoBRET Fold Response (GRM7, 0.1μM tracer): 0.95; NanoBRET Fold Response (GRM7, 1μM tracer): 0.92
